According to US5939322A, “Human steroid receptor” (Merck & Co., Inc., priority 1996, dated 1999):
“Also recorded” adds a separate entry of the source.

Columns and labels:
GR/PPAR [1] = assay: Ligand dependent transcription assay, GR/PPAR chimeric receptor with MMTV-luciferase reporter in COS cells; assay type: cell-based, African green monkey
Description: (§1) Similar hybrid receptors GR/NER, GR/NUC and GR/PPAR, in identical expression plasmid backgrounds were prepared essentially as described for the construction of the GR/mPPAR and GR/NUC chimeric receptors in Schmidt et al., "Identification of a new member of the steroid hormone receptor superfamily that is activated by a peroxisome proliferator and fatty acids," Mol. Endocrinol., 6(10):1634-41, 1992, and in Boie et al., "Enantioselective activation of the peroxisome proliferator-activated receptor", J. Biol. Chem. 269(8):5530-4, 1993.
(§2) Briefly, the amino terminal portion of the mouse glucocorticoid receptor (mGR), that includes the DNA binding domain was fused to the putative ligand binding domains of the nuclear receptor NER, hNUC-I (Schmidt et al., 1992), mPPAR (Issenmann and Green, 1990) to form the respective chimeric receptors GR/NER, GR/NUC and GR/PPAR. The GR/NER chimeric receptor was constructed as described for the GR/NUC and GR/PPAR hybrid receptors (Schmidt et al., 1992; Boie et al). The cDNA sequences coding for amino acids Arg^155 and Glu^156 of the NER receptor were converted to the Xho I restriction site, that was later used for the ligation to the GR cDNA sequences that coded for the DNA binding domain. Thus, converting amino acid residues Arg^155 and Glu^156 of NER receptor to amino acid residues Ser^155 and His^156.
The ligand transcription assay mediated by GR/PPAR in COS cells was performed as described in Example 4. The cells were treated with TOFA and Cerulenin at 0.1, 1, 10 and 100 μM.

GR/NUC = assay: Ligand dependent transcription assay, GR/NUC chimeric receptor with MMTV-luciferase reporter; assay type: cell-based, human; conditions: Table 1
Description: as §1, §2

GR/PPAR [2] = assay: Ligand dependent transcription assay, GR/PPAR chimeric receptor with MMTV-luciferase reporter in COS cells; assay type: cell-based, African green monkey; conditions: Table 1
[3] = tested on: SCH 23390 Induced Catalepsy; assay: SCH 23390 (dopamine D1 antagonist) induced catalepsy, bar method; assay type: in vivo; conditions: rats; carrier pretreatment, 24 h later SCH23390 0.5 mg/kg
Description: Rats were pretreated with 0.4 mg/kg TOFA or with carrier (S.C.). Twenty-four hours later, the rats were challenged with 0.5 mg/kg SCH23390, a Dopamine D1 antagonist, and the duration of catalepsy was monitored.
Catalepsy was determined by a modification of the Bar method (Undie and Friedman, 1988). A steel bar, 1.1 cm in diameter and 50 cm long, was suspended at a height of 10 cm above the working surface. Three sides of the bench around the bar were walled off with brown cardboard, and the linings on the bench surface were selected to be of the same color with the cardboard walls. The animal's hind limbs were freely placed on the bench, the tail laid out to the back, and the forelimbs placed over the bar. The length of time a rat stayed up on the bar was noted up to a preset cut-off point of 120 s. The time was counted off upon observing any of the following actions: (1) the animal came off, placing its two forepaws on the bench, (2) the animal climbed onto or over the bar with both hind limbs, (3) the animal initiated locomotion along or around the bar. Subsequently, time readings were translated into scores by awarding a score of 1 for each successfully completed 5 s on the bar. […]
Catalepsy scores were analyzed by computer in accordance with the statistical procedures outlined by Winer, B. J.: Statistical principles in experimental design. […]

GR/NER = assay: Ligand dependent transcription assay, GR/NER chimeric receptor with MMTV-luciferase reporter in CV1 cells; assay type: cell-based, African green monkey; conditions: for Fold of Stimulation GR/NER, Control: no dopamine
Description: (§3) Transient transfection of COS and CV1 cells was performed as described (Schmidt 1992). Cells were plated (1.5×10^5 in 1 mL) into 12 well dishes in phenol red-free medium supplemented with activated charcoal treated fetal calf serum. The next day 0.12 mL of DNA 10 μg/ml (5 μg receptor DNA and 5 μg reporter plasmid), as a calcium phosphate precipitate, was added to the cells. Ligands were added to the cells 30 minutes after transfection. The next day (18 hours), the cells were washed and fresh ligands added. Twenty-four hours later, cell extracts were prepared and assayed for luciferase enzyme activity using the luciferase assay system (Promega Madison, Wis.). Each transfection was performed in triplicate and the luciferase activity of each sample measured in duplicate using the AutoClinilumat (Berthold Nashua, New Hampshire).

[4] = tested on: MMTV-luciferase reporter gene; assay: Luciferase expression in cells transfected only with the MMTV-luciferase reporter gene; assay type: cell-based
Description: as §3

[5] = tested on: Haloperidol Induced Catalepsy; assay: Haloperidol (dopamine D2 antagonist) induced catalepsy, bar method; assay type: in vivo; conditions: rats; TOFA 0.4 mg/kg S.C. 24 h before Haloperidol 0.1 mg/kg
promoter of SV40 = assay: Luciferase expression from reporter gene under control of the SV40 promoter; assay type: cell-based
PC12 cells = assay: Neurite differentiation of PC12 cells; assay type: cell-based; conditions: TOFA alone, without NGF (data not shown)
Description: To further study the influence of TOFA on the nervous system, we tested the effect of TOFA on the differentiation of PC12 cells. PC12 cells were plated at a density of approximately 100-200/mm^2 on collagen coated plates or dishes in RPMI medium supplemented with 10% horse serum, 5% fetal calf serum, […] streptomycin, 50 U/mL penicillin in a water saturated atmosphere of 95% air and 5% CO2, at 37° C. overnight. […]
At different time points during the treatment, cells were photographed or fixed with 10% formalin. Morphology was examined after four days of treatment with TOFA or vehicle (DMSO). The number of cells bearing neurites and average length of neurites were determined with the aid of the Bioquant imaging system. […] However, as depicted in Table 6 below, NGF alone induced a 15% increase in the number of cells bearing neurites and these outgrowths reached a mean length of 20 μm . Treatment with NGF and TOFA increased the percentage of cells bearing neurites to 78%. Maximal neurite generation is observed at a concentration of 10 μM TOFA.
[…] At least eighty cells from eight wells were analyzed in each group. The results are shown as the mean±SEM. ^a p<0.01, versus vehicle by Dunnetts test.

C/C=C/C/C=C/CCC(=O)[C@H]1O[C@H]1C(N)=O [Cerulenin]
Fold of Stimulation GR/PPAR (GR/PPAR [1]; 0.1 μM, Table 2, 1440 min): 1.03 ± 0.12 fold
Fold of Stimulation GR/PPAR (GR/PPAR [1]; 1.0 μM, Table 2): 1.13 ± 0.05 fold
Fold of Stimulation GR/PPAR (GR/PPAR [1]; 10.0 μM, Table 2, 1440 min): 0.58 ± 0.11 fold

CCCCCCCC/C=C\CCCCCCCC(=O)O [Oleic Acid, oleic acid]
Fold of stimulation GR/NUC (GR/NUC; 150 μM): 3.42 ± 0.28 fold
Fold of Stimulation GR/PPAR (GR/PPAR [2]; 50 μM): 2.87 ± 0.2 fold
Fold of Stimulation GR/PPAR (GR/PPAR [2]; 300 μM): 14.69 ± 0.06 fold

CN1CCc2cc(Cl)c(O)cc2C(c2ccccc2)C1 (centres unmarked) [SCH-23390, 8-chloro-2,3,4,5-tetrahydro-3-methyl-5-phenyl-1H-3-benzazepin-7-ol hemimaleate]
Catalepsy Duration [3]: 3.1 ± 1.3 s
Fold of Stimulation GR/NER, Dopamine (50 μM) (GR/NER; SCH-23390 0.1 μM with dopamine 50 μM): 0.59 ± 0.06 fold
Fold of Stimulation GR/NER, Control (GR/NER; SCH-23390 0.1 μM): 1.32 ± 0.15 fold
Fold of Stimulation GR/NER, Dopamine (50 μM) (GR/NER; SCH-23390 1.0 μM with dopamine 50 μM): 0.55 ± 0.09 fold
Fold of Stimulation GR/NER, Control (GR/NER; SCH-23390 1.0 μM): 1.22 ± 0.11 fold
Fold of Stimulation GR/NER, Dopamine (50 μM) (GR/NER; SCH-23390 10.0 μM with dopamine 50 μM): 0.83 ± 0.12 fold
Fold of Stimulation GR/NER, Control (GR/NER; SCH-23390 10.0 μM): 1.64 ± 0.38 fold
Fold of Stimulation GR/NER, Dopamine (50 μM) (GR/NER; SCH-23390 100 μM with dopamine 50 μM): 2.61 ± 0.86 fold
Fold of Stimulation GR/NER, Control (GR/NER; SCH-23390 100 μM): 2.38 ± 0.19 fold

CCCCCCCCCCCCCCOc1ccc(C(=O)O)o1 [TOFA, 5-(tetradecyloxy)-2-furan carboxylic acid]
stimulation of luciferase expression, MMTV-luciferase reporter gene only [4]: did not stimulate
effect of TOFA pretreatment on Haloperidol-induced catalepsy [5]: did not significantly affect; also recorded: unaffected
Fold of stimulation GR/NUC (GR/NUC; 2 μM): 1.95 ± 0.14 fold
Fold of stimulation GR/NUC (GR/NUC; 10 μM): 2.85 ± 0.20 fold
Fold of stimulation GR/NUC (GR/NUC; 50 μM): 3.19 ± 0.20 fold
stimulation of luciferase expression, reporter under control of the promoter of SV40 (promoter of SV40): did not stimulate
Fold of Stimulation GR/PPAR (GR/PPAR [1]; 0.1 μM, Table 2, 1440 min): 1.04 ± 0.14 fold
Fold of Stimulation GR/PPAR (GR/PPAR [1]; 1.0 μM, Table 2): 2.38 ± 0.16 fold
Fold of Stimulation GR/PPAR (GR/PPAR [1]; 10.0 μM, Table 2, 1440 min): 4.43 ± 0.23 fold
Fold of Stimulation GR/PPAR (GR/PPAR [1]; 100 μM, Table 2, 1440 min): 4.10 ± 0.52 fold
neurite outgrowth (PC12 cells): did not induce neurite outgrowth
Fold of Stimulation GR/PPAR (GR/PPAR [2]; 2 μM): 2.89 ± 0.13 fold
Fold of Stimulation GR/PPAR (GR/PPAR [2]; 10 μM): 4.08 ± 0.10 fold
Fold of Stimulation GR/PPAR (GR/PPAR [2]; 20 μM): 5.75 ± 0.14 fold
